From the supplement of paper PMC10307832 come the findings set out here.

Holding throughout (experiment): relative viability (nuclei count vs DMSO), 5 days (fraction); higher = more cells survive
Compound in the experiment “Lapatinib + Crizotinib”: CS(=O)(=O)CCNCc1ccc(-c2ccc3ncnc(Nc4ccc(OCc5cccc(F)c5)c(Cl)c4)c3c2)o1 [Lapatinib] + C[C@@H](Oc1cc(-c2cnn(C3CCNCC3)c2)cnc1N)c1c(Cl)ccc(F)c1Cl [Crizotinib] (partner 1 µM)
The method in brief:
(§1)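 Relative viability was taken as the ratio of nuclei in treated wells to nuclei in vehicle wells. Lung cancer cell lines in 1536-well plates received compounds by pin tool one day after seeding, either one drug alone or a fixed anchor-drug dose plus five library-drug doses (not always all listed) in √10 steps. Nuclei were counted on 4× images after 5 days of treatment, and values are medians of duplicate plates.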

Compound in the experiment “Lapatinib + Trametinib”: CS(=O)(=O)CCNCc1ccc(-c2ccc3ncnc(Nc4ccc(OCc5cccc(F)c5)c(Cl)c4)c3c2)o1 [Lapatinib] + CC(=O)Nc1cccc(-n2c(=O)n(C3CC3)c(=O)c3c(Nc4ccc(I)cc4F)n(C)c(=O)c(C)c32)c1 [Trametinib] (partner 0.02 µM)
The essentials: as §1

Compound in a further experiment: CC1=NC=CC(=C1)C2=CC=C(C=C2)CC(=O)NC3=CC=C(C=C3)C4=CN=CC=C4 [Wnt-C59]
The method in brief:
(§2)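 Five library-drug doses, separated by factors of √10, were pinned into 1536-well plates holding lung cancer cell lines after an overnight stay at 37 °C. Cells were fixed, permeabilised and Hoechst-stained in one step after 5 days without medium change, then imaged at 4×. Viability compares treated-well with vehicle-well nuclei, counted in MetaXpress, as a median across plates. Passing plates had control CV below 25% and at least one doubling.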

Compound in another experiment: CS(=O)(=O)CCNCc1ccc(-c2ccc3ncnc(Nc4ccc(OCc5cccc(F)c5)c(Cl)c4)c3c2)o1 [Lapatinib]
The essentials:
as §2

Consider UMC-11, for which the relative viability with Lapatinib + Crizotinib (first compound 0.02 µM) was determined as 0.541; in the experiment with Lapatinib + Crizotinib (first compound 0.06325 µM), 0.508; with Lapatinib + Crizotinib (first compound 0.2 µM), 0.672; with Lapatinib + Crizotinib (first compound 0.6325 µM), 0.578; in the experiment with Lapatinib + Crizotinib (first compound 2 µM) it was 0.659; with Lapatinib + Trametinib (first compound 0.02 µM), 0.293. The relative viability with Lapatinib + Trametinib (first compound 0.06325 µM) is 0.617; in the experiment with Lapatinib + Trametinib (first compound 0.2 µM), 0.69; with Lapatinib + Trametinib (first compound 0.6325 µM), 0.76; with Lapatinib + Trametinib (first compound 2 µM) it was 0.676; with Wnt-C59 (0.001 µM) it was 0.909; with Wnt-C59 (0.01 µM), 1.04. Moreover, the relative viability with Wnt-C59 (0.03162 µM) was found to be 1.08; in the experiment with Wnt-C59 (0.1 µM), 1.03; with Lapatinib (0.02 µM) it was 0.906; with Lapatinib (0.06325 µM) it was 0.935; with Lapatinib (0.2 µM), 1.02; with Lapatinib (0.6325 µM), 0.998. For the same cell line, the relative viability with Lapatinib (2 µM) stood at 0.942; with Lapatinib (2 µM, anchor plate), 1.02.
